Test results published in publication PMC6061858 (2018).

Assays:
[1] = test system: bhmT 52 nt (SAM-52) (RNA, riboswitch) GGGCAGUUGAACCAUAUUGUGCGCCCUGCAUUUGCUUAAGCACUAAAAAGGA; test: ITC; conditions: 100 mM KCl, 10 mM MgCl2, 40 mM HEPES pH 7.2, 298 K
[2] = test system: bhmT U9 4-thiouridine (RNA, riboswitch, 4-thiouridine at U9 (metY numbering; position 7 of strand)) GGGCAGUUGAACCAUAUUGUGCGCCCUGCAUUUGCUUAAGCACUAAAAAGGA; test: ITC; conditions: 100 mM KCl, 10 mM MgCl2; 40 mM HEPES pH 7.2, 298 K; 200 µM SAM titrated into 15 µM RNA
[3] = test system: bhmT U47Isocytidine (RNA, riboswitch, isocytidine at U47 (metY numbering; position 44 of strand)) GGGCAGUUGAACCAUAUUGUGCGCCCUGCAUUUGCUUAAGCACUAAAAAGGA; test: ITC; conditions: 100 mM KCl, 10 mM MgCl2; 40 mM HEPES pH 7.2, 298 K; 200 µM SAM titrated into 15 µM RNA
[4] = test system: metY A50Pur (RNA, riboswitch, purine at 50 (replaces A50)) AGGCGCAUUUGAACUGUAUUGUACGCCUUGCAUAAAGCAAAAGUACUAAAAAAGG; test: ITC; conditions: 100 mM KCl, 10 mM MgCl2; 40 mM HEPES pH 7.2, 298 K
[5] = test system: metY U47Isocytidine (RNA, riboswitch, isocytidine at 47 (replaces U47)) AGGCGCAUUUGAACUGUAUUGUACGCCUUGCAUAAAGCAAAAGUACUAAAAAAGG; test: ITC; conditions: 100 mM KCl, 10 mM MgCl2; 40 mM HEPES pH 7.2, 298 K; 200 µM SAM titrated into 15 µM RNA
[6] = test system: bhmT U20 4-thiouridine (RNA, riboswitch, 4-thiouridine at U20 (metY numbering; position 18 of strand)) GGGCAGUUGAACCAUAUUGUGCGCCCUGCAUUUGCUUAAGCACUAAAAAGGA; test: ITC; conditions: 100 mM KCl, 10 mM MgCl2; 40 mM HEPES pH 7.2, 298 K; 200 µM SAM titrated into 15 µM RNA
[7] = test system: metY 53 nt (RNA, riboswitch) AGGCGCAUUUGAACUGUAUUGUACGCCUUGCAUAAAGCAAAAGUACUAAAAAA; test: ITC; conditions: 100 mM KCl, 10 mM MgCl2; 40 mM HEPES pH 7.2, 298 K; 200 µM SAM titrated into 15 µM RNA
[8] = test system: bhmT A50Pur (RNA, riboswitch, purine at A50 (metY numbering; position 47 of strand)) GGGCAGUUGAACCAUAUUGUGCGCCCUGCAUUUGCUUAAGCACUAAAAAGGA; test: ITC; conditions: 100 mM KCl, 10 mM MgCl2; 40 mM HEPES pH 7.2, 298 K
[9] = test system: bhmT 49 nt (SAM-49) (RNA, riboswitch) GGGCAGUUGAACCAUAUUGUGCGCCCUGCAUUUGCUUAAGCACUAAAAA; test: ITC; conditions: 100 mM KCl, 10 mM MgCl2; 40 mM HEPES pH 7.2, 298 K; 200 µM SAM titrated into 15 µM RNA
[10] = test system: metY 53 nt, 5-bromocytosine (crystallized) (RNA, riboswitch, 5-bromocytidine at 4) AGGCGCAUUUGAACUGUAUUGUACGCCUUGCAUAAAGCAAAAGUACUAAAAAA; test: X-ray crystallography (2.5 Å); conditions: co-crystal, space group P4_122
[11] = test system: metY A50Inosine (RNA, riboswitch, inosine at 50 (replaces A50)) AGGCGCAUUUGAACUGUAUUGUACGCCUUGCAUAAAGCAAAAGUACUAAAAAAGG; test: ITC; conditions: 100 mM KCl, 10 mM MgCl2; 40 mM HEPES pH 7.2, 298 K; 200 µM SAM titrated into 15 µM RNA
[12] = test system: metY 55 nt (metY SAM-V riboswitch) (RNA, riboswitch) AGGCGCAUUUGAACUGUAUUGUACGCCUUGCAUAAAGCAAAAGUACUAAAAAAGG; test: ITC; conditions: 100 mM KCl, 10 mM MgCl2, 40 mM HEPES pH 7.2, 298 K
[13] = test system: bhmT A50Ino (RNA, riboswitch, inosine at A50 (metY numbering; position 47 of strand)) GGGCAGUUGAACCAUAUUGUGCGCCCUGCAUUUGCUUAAGCACUAAAAAGGA; test: ITC; conditions: 100 mM KCl, 10 mM MgCl2; 40 mM HEPES pH 7.2, 298 K
[14] = 200-250 µM SAH titrated into 15 µM RNA

Kd [1] [µM]	binding [2]	binding [3]	Kd [4] [µM]	binding [5]	binding [6]	binding [7]	Kd [8] [µM]	binding [9]	binding [10]	binding [11]	Kd [12] [µM]	Kd [13] [µM]	binding [1, 14]	binding [12, 14]	Structure (SMILES)
0.50 ± 0.08	no	no	14.7 ± 1.8	no	weak	no	0.90 ± 0.10	no	yes	weak	4.37 ± 0.21	16.8 ± 2.6	–	–	C[S+](CC[C@H](N)C(=O)O)C[C@H]1O[C@@H](n2cnc3c(N)ncnc32)[C@H](O)[C@@H]1O (stereo partly drawn)
–	–	–	–	–	–	–	–	–	–	–	–	–	no	no	Nc1ncnc2c1ncn2[C@@H]1O[C@H](CSCC[C@H](N)C(=O)O)[C@@H](O)[C@H]1O
